Read-outs that look alike come from different tables or passages of the source.
Columns and labels:
[1] = tested on: MDA-MB-231 cells; assay: Immune cell killing (sensitization to PBMC-derived LAK); format: cell-based, human
Description: Peripheral blood mononuclear cells were obtained from healthy volunteers with an established IRB approved protocol, separated from heparinized blood on Ficoll-hypaque (GE Healthcare, Chicago) gradients as previously reported (16). Cells were cultured in RPMI 1640 supplemented with 10% FCS, 1% glutamine, 1% penicillin/streptomycin, and stimulated with 6,000 IU of Interleukin 2 for 24 hours. After incubation, cells were washed with PBS and counted. In parallel, MBA-MB-231 cells were pre-treated in a 384 well plate with vehicle or BCI-215 (3 μM). After 24 hours in culture, medium was replaced and PBMC added in two-fold serial dilutions starting with a 50-fold excess of PBMCs in triplicate. After 24 hours of co-culture, cells were fixed with formaldehyde/Hoechst 33342, washed twice with PBS, and imaged on the ArrayScan II. Cancer cells were identified by their larger nuclei compared with PBMC, setting a size gate in the DAPI channel. In experiments with chemotherapeutics, cells carrying a biosensor consisting of a mitochondrial targeting sequence derived from cytochrome c oxidase VIII linked to GFP that is a surrogate for cytochrome c release from mitochondria (17) were pre-treated for 24 hours with cisplatin (2 μM) or doxorubicin (400 nM), exposed to LAK as above, and cancer cells identified and quantified by green fluorescence. Cell densities were normalized to those in the absence of PBMCs. Mean cell densities from multiple independent experiments were averaged and plotted in GraphPad Prism.

[2] = tested on: zebrafish embryos; conditions: prior SAR study (12); cited from earlier work
[3] = tested on: MDA-MB-231 cells; assay: Detection and quantitation of ROS in cancer cells (CM-H2-DCFDA); format: cell-based, human; conditions: 50 μM
Description: Detection and quantitation of ROS in cancer cells was performed as described before (14). Briefly, MDA-MB-231 cells were labeled with Hoechst 33342, loaded with CM-H2-DCFDA (5 μM, 15 min), and treated with test agents for 10 min. After two washes, cells were analyzed for Hoechst and ROS/FITC fluorescence on the ArrayScan II. Cells were classified as positive for ROS if their average FITC intensity exceeded a threshold defined as the average FITC intensity plus one SD from DMSO-treated wells.

[4] = tested on: ERK, JNK/SAPK, p38, MEK1 and MKK4/SEK1 phosphorylation; assay: Western blot of MAPK cascade phosphorylation; format: cell-based, human; conditions: 20 μM
[5] = tested on: rat hepatocytes; assay: ROS generation in hepatocytes (DHE staining); format: cell-based
Description: Cells were cultured as above and labeled four hours following drug addition with 4 μM DHE for 2 hours. Hoechst 33342 was added to a 4 μg/ml final concentration during the final hour of incubation. In the presence of ROS, DHE is oxidized to a red fluorescent dye (oxyethidium). Cells were imaged as above and the percentage of oxyethidium-nuclear positive cells calculated based on a threshold set with vehicle treated cells.

[6] = tested on: DUSP6/MKP-3 and DUSP1/MKP-1; conditions: HeLa cells, prior study (12); cited from earlier work
[7] = tested on: endothelial cell line; conditions: prior SAR study (12); cited from earlier work
[8] = tested on: MDA-MB-231 cells; assay: Colony formation in three dimensional matrigel culture; format: cell-based, human
Description: MDA-MB-231 cells (2000/well) transduced with a biosensor consisting of EGFP with a mitochondrial targeting sequence derived from cytochrome-C oxidase subunit VIII (52) were trypsinized, resuspended in RPMI1640 containing 2% FBS and 2% matrigel, and seeded in 384 well microplates on a 15 μl cushion of undiluted matrigel. After 24 hours, cells were treated with various concentrations of BCI-215 or vehicle (0.2% DMSO). After two days, drug was washed out and cells allowed to expand for an additional three to five days. At the end of the study, medium was replaced with HBSS containing 4 μg/ml PI for 1 hour, and plates scanned live on an ImageXpress Ultra HCS reader, acquiring z-stacks (4× objective, 20 planes, 50 μm) in the green and red channels. Cell numbers were quantified from maximum projection images using the Multiwavelength Cell Scoring application.

[9] = tested on: MDA-MB-231 cells; assay: HCA of apoptosis and ERK phosphorylation (multiparametric: nuclear condensation, caspase-3 cleavage, ERK phosphorylation); format: cell-based, human; conditions: for IC50: Homo sapiens, 24 hours
Description: MDA-MB-231 cells (10,000/well) were treated with identical concentration gradients of test agents on the right and left half of a 384 well microplate for later assessment of potential compound autofluorescence. After 24 hours, cells were fixed, permeabilized with 0.2% Triton X-100, blocked with 1% BSA/PBS, and immunostained with anti-phospho-ERK (E10, CST cat#9106L)/AlexaFluor488 and anti-cleaved caspase-3 (CST cat#9664L)/AlexaFluor594 primary/secondary antibody pairs. Plates were imaged on the ArrayScan II using a 10×0.5NA objective. Each well was background corrected by subtracting mean phospho-ERK and cleaved caspase-3 intensities from wells that had received secondary antibody only. Data in Table 1 are the averages of the indicated numbers of independent experiments, each performed in quadruplicate. IC50, standard error, and 95% confidence intervals were calculated by […] in GraphPad Prism.
Multiple data points were analyzed in GraphPad Prism by one-way ANOVA using Dunnett's multiple comparison test. EC50/IC50 values were obtained from at least three independent experiments by non-linear regression using a four parameter logistic equation. IC50, standard error, and 95% confidence intervals were calculated in GraphPad.

[10] = tested on: MDA-MB-231 cells; assay: BCI-215 toxicity in the presence of doxorubicin; format: cell-based, human; conditions: doxorubicin 5 μM pre-treated 2-3 hours
Description: FIG. 9. Reduced toxicity of BCI-215 in the presence of doxorubicin. MDA-MB-231 carrying the mitochondrial-targeted, GFP-labeled cytochrome C biosensor were treated for 2-3 hours with vehicle (DMSO) or doxorubicin (5 μM) before being exposed to concentration gradients of BCI-215 for 20 h. Plates were scanned live on an ImageXpress high content reader at 20× magnification and GFP positive cells enumerated. Cell densities were normalized to vehicle or doxorubicin alone, respectively. Data are the averages ±SD from three independent experiments, each performed in quadruplicate.

O=C1/C(=C/c2ccccc2)C(NC2CCCCC2)c2cc(Br)ccc21 (centres unmarked) [BCI-215]
difference in killing versus vehicle ([1]; BCI-215 3 μM pre-treatment versus vehicle): well over three log differences in killing
LAK number at maximal sensitization ([1]; MDA-MB-231 pre-treated with BCI-215 3 μM for 24 hours): 1000 LAK/well
sensitization to LAK activity ([1]; pre-treated 24 hours: BCI-215 3 μM, cisplatin 2 μM, doxorubicin 400 nM): sensitization at lower effector ratios than cisplatin or doxorubicin
toxicity to zebrafish embryos [2]: non-toxic
ROS generation at 50 μM [3]: did not generate ROS
activation of upstream kinases MEK1 and MKK4/SEK1 ([4]; MDA-MB-231, BT-20 and HeLa, 1 hour): activated MEK1 and MKK4/SEK1
activation (phosphorylation) of ERK, JNK/SAPK and p38 ([4]; MDA-MB-231 cells): activated all three kinases
generation of ROS in hepatocytes (DHE) [5]: does not Generate Reactive Oxygen Species
effect on ectopic DUSP6/MKP-3 and DUSP1/MKP-1 expression [6]: override the effects
toxicity to an endothelial cell line [7]: non-toxic
cell lysis (PI positivity) ([8]; longer-term 3D matrigel assay): pronounced cell lysis
colony formation ([8]; matrigel-on-top model, two days of exposure then washout): inhibited colony formation
nuclear morphology ([9]; BCI and BCI-215 at 22 μM): shrunken, condensed nuclei that resembled pyknosis
IC50 ([9]; induction of phospho-ERK, read-out: IC50 ERK phosphorylation): 15.4 µM
IC50 ([9]; read-out: IC50 Caspase-3 cleavage): 7.33 µM
IC50 ([9]; read-out: IC50 Nuclear condensation): 12.8 µM
toxicity of BCI-215 after doxorubicin pre-treatment (cell numbers) [10]: reduced the toxicity of BCI-215

From patent US20190358176A1, “METHODS OF SENSITIZING CANCER CELLS TO IMMUNE CELL KILLING” (University of Pittsburgh - of the Commonwealth System of …, priority 2017, published 2019)
